Experimental data: US11883452B2, “Use of combination or composition of Radix et Rhizoma Notoginseng and aspirin” (CHINESE ACADEMY OF MEDICAL SCIENCES INSTITUTE OF MEDICINAL …, priority 2017, dated 2024)

How the values were obtained:
Format in all cases: in vivo, SD rats
[1] = system: myocardial ischemia reperfusion injury model rats; assay: Myocardial infarction volume by TTC staining in myocardial ischemia-reperfusion injury rats; details: x ± s
Protocol: 240 male SD rats were randomly divided into 8 groups, with 30 rats in each group, including a sham operated group, a myocardial ischemia reperfusion injury model group, a group treated with the total saponins from Radix et Rhizoma Notoginseng at a dosage of 50 mg/kg, a group treated with aspirin at a dosage of 10 mg/kg, a group treated with aspirin at a dosage 5 mg/kg, a group treated with the combination of the total saponins from Radix et Rhizoma Notoginseng at a dosage of 50 mg/kg and aspirin at a dosage of 5 mg/kg. […]
The rats were anesthetized by intraperitoneal injection of pentobarbital sodium at a dose of 40 mg/kg body weight, and were connected to a small animal ventilator through an oral cannula, with a respiratory rate of 70 breaths/min, a respiratory ratio of 1:1, and a tidal volume of 1 mL. Real time electrocardiograms of the rats were recorded on a multi-lead physiological recorder available from AD Instruments. […]
Myocardial infarction volumes were evaluated by triphenyl tetrazolium chloride (TTC) staining. […] Myocardial infarction volumes were evaluated and calculated using Image-Pro plus 5.1 software

[2] = system: myocardial ischemia reperfusion injury model rats; assay: Three myocardial enzymes (AST, LDH, CK) in myocardial ischemia-reperfusion injury rats
Protocol: Rats in the groups treated with the total saponins from Radix et Rhizoma Notoginseng and/or aspirin were administrated intragastrically with the total saponins from Radix et Rhizoma Notoginseng and/or aspirin for a week, and rats in the sham operated group and model group were administrated intragastrically with an equivalent volume of distilled water. […] Real time electrocardiograms of the rats were recorded on a multi-lead physiological recorder available from AD Instruments. Thoracotomy was performed on the rats. An incision of 2 to 3 cm was made at a place between the 3rd and 4th ribs and about 0.5 cm from the left side of the sternum, a chest expander was used to open the ribs, and the pericardium was cut when exhaling to expose the heart. Myocardial ischemia was established by ligating the left coronary artery. […] After being stabilized for 5 minutes, the silk thread was passed through a disposable intravenous infusion hose with a length of about 3.5 cm. After the silk thread was pulled out, the silk thread was gently lifted, and the hose was pushed down and was fixed with a hemostatic forceps. […] The ligation was considered successful if: the ST segment was elevated, and the color of local myocardial tissue changed from red to gray; and after 30 minutes of reperfusion, the ST segment fell by more than 50%, and the color of myocardial tissue changed from gray to red. After the reperfusion was completed, blood was taken from the abdominal aorta and analyzed on an automatic biochemical analyzer to detect the levels of three myocardial enzymes (AST, LDH, CK) in plasma.

[3] = system: middle cerebral artery occlusion (MCAO/R) model rats; assay: Neurological evaluation (Longa's five-grade score) in MCAO/R rats
[4] = system: middle cerebral artery occlusion (MCAO/R) model rats; assay: Cerebral infarction volume by TTC staining in MCAO/R rats; details: 24 hours of reperfusion
Protocol: (§1) 240 male SD rats were randomly divided into 8 groups, with 30 rats in each group, including a sham operated group, a middle cerebral artery occlusion (MCAO/R) model group, a group treated with the total saponins from Radix et Rhizoma Notoginseng at a dosage of 50 mg/kg, a group treated with aspirin at a dosage of 10 mg/kg, a group treated with aspirin at a dosage of 5 mg/kg, a group treated with the combination of the total saponins from Radix et Rhizoma Notoginseng at a dosage of 50 mg/kg and aspirin at a dosage of 5 mg/kg. The rats in the groups treated with the total saponins from Radix et Rhizoma Notoginseng and/or aspirin were administrated intragastrically with the total saponins from Radix et Rhizoma Notoginseng and/or aspirin for a week before MCAO, and the rats in the sham operated group and model group were administrated intragastrically with an equivalent volume of distilled water.
Middle cerebral artery occlusion (MCAO) model was established by thread embolization method. The surgical procedure was carried out under strictly aseptic conditions mainly according to the following steps: The rats were anesthetized by intraperitoneal injection of ketamine (80 mg/kg) and xylazine (10 mg/kg). […]
Cerebral infarction volumes were determined by triphenyl tetrazolium chloride (TTC) staining. […] Cerebral infarction volumes were evaluated and calculated using Image-Pro plus 5.1 software.

[5] = system: platelets in platelet-rich plasma; assay: Maximum platelet aggregation rate (ADP-induced, platelet-rich plasma) in MCAO/R rats; details: ADP 2 μmol/L
Protocol: as §1, with “water. […]” for “water.”
3.6 mL of blood was taken from the rats (n=10), anticoagulated with 3.8% sodium citrate (9:1), centrifuged at 150 g for 10 min to separate a platelet-rich plasma, and then centrifuged at 1500 g for 10 min to obtain a supernatant, which was platelet-poor plasma. […] Maximum aggregation within 5 minutes and maximum aggregation time of platelets in platelet-rich plasma were detected with a blood agglutination instrument.

[6] = system: middle cerebral artery occlusion (MCAO/R) model rats; assay: Serum inflammatory factors by ELISA in MCAO/R rats
[7] = system: middle cerebral artery occlusion (MCAO/R) model rats; assay: Canine urea levels in serum, hippocampus and cerebral cortex by ELISA in MCAO/R rats
Protocol: Middle cerebral artery occlusion (MCAO) model was established by thread embolization method. The surgical procedure was carried out under strictly aseptic conditions mainly according to the following steps: The rats were anesthetized by intraperitoneal injection of ketamine (80 mg/kg) and xylazine (10 mg/kg). The common carotid artery (CCA), external carotid artery (ECA) and internal carotid artery (ICA) were fully exposed, the common carotid artery was clamped with a vascular clip, and the branches of the external carotid artery were electrocoagulated with a bipolar electrocoagulation forceps. The main trunk of the external carotid artery was freed and ligated at 3 to 4 mm from the bifurcation of the common carotid artery. The internal carotid artery was temporarily clamped with a vascular clip. Corneal scissors were used to make a small incision in the external carotid artery. A 4-0 monofilament nylon thread coated with methylpolysiloxane was inserted and was tied a loose knot at the small incision of the external carotid artery to block the blood reflux of the internal carotid artery. The clip was removed from the internal carotid artery, and the nylon thread was gently pushed into the internal carotid artery to reach the intracranial anterior cerebral artery to block an incision of the middle cerebral artery (MCA), with an insertion depth of about 18-22 mm. The clip was removed from the common carotid artery, and the subcutaneous tissue and skin were sutured layer by layer after disinfection, and 2 hours later the nylon thread was slowly withdrawn to perform reperfusion for 24 hours. The operation to the sham operated group is the same as the above except that nylon thread is not inserted. The rectum of all rats was maintained at a temperature of 37° C. throughout the experiment.
5 mL of blood was taken from the abdominal aorta of the rats (n=8), and centrifuged at 3000 rpm for 10 min to obtain a serum. Hippocampus and cerebral cortex were separated from the brain tissue, homogenized, and centrifuged at 3000 rpm for 10 min to obtain a supernatant. Serum MDA, SOD, CAT and GSH-Px levels were detected with kits available from Nanjing Jiancheng; levels of canine urea and inflammatory response indicators MCP-1, TNF-α, IL-1β, IL-4, IL-6 and IL-10 were detected with ELISA kits.

rat gastric mucosa = assay: HE staining to detect pathological changes of gastric mucosa; details: aspirin 10 mg/kg intragastrically daily for 4 weeks; rats
Protocol: (§2) 40 male SD rats were randomly divided into 4 groups, with 10 rats in each group, including a control group, a group treated with aspirin at a dosage of 10 mg/kg, a group treated with the total saponins from Radix et Rhizoma Notoginseng at a dosage of 100 mg/kg and aspirin at a dosage of 10 mg/kg, and a group treated with the total saponins from Radix et Rhizoma Notoginseng at a dosage of 100 mg/kg. The rats in the groups treated with the total saponins from Radix et Rhizoma Notoginseng and aspirin were administrated intragastrically with the total saponins from Radix et Rhizoma Notoginseng and aspirin daily for 4 weeks, and the rats in the control group were administrated intragastrically with an equivalent volume of normal saline daily.
After 4 weeks of administration, gastric tissues were taken from rats in each group and fixed with 4% formaldehyde solution, routinely embedded in paraffin and cut into slices, and stained with HE to observe the degree of inflammatory lesions in the tissues.

rat duodenal microvilli = assay: Ultrastructure of duodenal villi with transmission electron microscope; details: aspirin 10 mg/kg intragastrically daily for 4 weeks; rats
Protocol: as §2
After 4 weeks of administration, the duodenum was collected from rats in each group of rats and fixed in 2.5% glutaraldehyde buffer for 2 h, then washed with PH 7.4 buffer three times, and then soaked with 1% osmium tetroxide for 30 min, dehydrated with graded alcohol and acetone, and then embedded in epoxy resin 812. Ultra-thin slices were prepared, copper grids of 200 grid units were taken, the ultra-thin slices were again impregnated with uranyl acetate and lead citrate, and then analyzed under the electron microscope to observe changes in the ultrastructure of the duodenum in rats of each group.

[8] = aspirin 5 mg/kg intragastrically for a week
[9] = aspirin 10 mg/kg intragastrically for a week
[10] = aspirin 5 mg/kg intragastrically for a week before MCAO
[11] = aspirin 10 mg/kg intragastrically for a week before MCAO

CC(=O)Oc1ccccc1C(=O)O [aspirin]
Myocardial infarction volume (%) [1, 8]: 9.88%
Myocardial infarction volume (%) [1, 9]: 8.75%
AST(U/L) [2, 8]: 312.48 U/L
CK(U/L) [2, 8]: 1823.49 U/L
LDH(U/L) [2, 8]: 1105.54 U/L
AST(U/L) [2, 9]: 204.32 U/L
CK(U/L) [2, 9]: 1222.54 U/L
LDH(U/L) [2, 9]: 811.85 U/L
Score (neurological deficit, Longa) [3, 10]: 1.83
Score (neurological deficit, Longa) [3, 11]: 1.08
Volume of cerebral infarction [4, 10]: 16.08
Volume of cerebral infarction [4, 11]: 13.96
Maximum platelet aggregation rate (%) [5, 8]: 56.80%
Maximum platelet aggregation rate (%) [5, 9]: 62.63%
IL-1β ([6]; aspirin 5 mg/kg): 168.58 pg/mL
IL-4 ([6]; aspirin 5 mg/kg): 36.57 pg/mL
IL-6 ([6]; aspirin 5 mg/kg): 47.12 pg/mL
IL-1β ([6]; aspirin 10 mg/kg): 189.69 pg/mL
IL-4 ([6]; aspirin 10 mg/kg): 35.45 pg/mL
IL-6 ([6]; aspirin 10 mg/kg): 47.15 pg/mL
Canine urea levels in cerebral cortex tissue ([7]; aspirin 5 mg/kg): 8.95 µg/L
Canine urea levels in hippocampus ([7]; aspirin 5 mg/kg): 2.11 µg/L
Canine urea levels in serum ([7]; aspirin 5 mg/kg): 18.00 µg/L
Canine urea levels in cerebral cortex tissue ([7]; aspirin 10 mg/kg): 8.12 µg/L
Canine urea levels in hippocampus ([7]; aspirin 10 mg/kg): 2.01 µg/L
Canine urea levels in serum ([7]; aspirin 10 mg/kg): 17.25 µg/L
gastric mucosa pathology (HE staining) compared with the control group (rat gastric mucosa): gastric mucosal epithelial cells were necrotic and inflammatory cells infiltrated
microvilli on the duodenal surface (electron microscope) compared with the control group (rat duodenal microvilli): the microvilli on the duodenal surface decreased
